We go through 22 molecules from ChEMBL document CHEMBL3396978, “Design, synthesis of new β-carboline derivatives and their selective anti-HIV-2 activity” (Bioorg Med Chem Lett, 2015).

One may read the CC50 as the concentration that lowers cell viability or growth by half. A lower CC50 goes with greater toxicity to the cells. By EC50 is commonly meant the midpoint of the concentration-response curve.

One data set relates to HeLa. The data set can be described thus: Cytotoxicity against mock-infected human […] cells by MTT assay. The data set is classed as functional.
The subject of data set [1] is Human immunodeficiency virus 2. The data set can be described thus: Antiviral activity against HIV2 ROD infected in human MT4 cells assessed as protection against virus-induced cytotoxicity after 5 days by MTT assay. To be noted: Human immunodeficiency virus 2, ISOLATE ROD, MT4, 120 h. The data set is classed as functional, organism-based. On the technique in general: Formazan colour is commonly taken as a measure of viable cells.

The test system of data set [2] is Human immunodeficiency virus 1. The data set can be described thus: Antiviral activity against HIV1 3B infected infected in human MT4 cells assessed as protection against virus-induced cytotoxicity after 5 days by MTT assay. Format: functional, organism-based. The settings on record: Human immunodeficiency virus 1, 3B, MT4, 120 h.
A short description of data set [3]: Selectivity index, ratio of CC50 for mock-infected human […] cells to EC50 for HIV2 ROD infected in human MT4 cells. Format: toxicity, cell-based. To be noted: read-out: Ratio CC50/EC50.
The target in data set [4] is Reverse transcriptase (Human immunodeficiency virus 2) (UniProt Q06347). The data set can be described thus: Inhibition of HIV2 reverse transcriptase using poly(C).oligo(dG) template/primer after 30 mins at 200 ug/mL.
Data set [5] has the same target. The data set can be described thus: Inhibition of HIV2 reverse transcriptase using poly(A).oligo(dT) template/primer after 30 mins at 200 ug/mL.
The test system of data set [6] is Human immunodeficiency virus 1. The data set can be described thus: Antiviral activity against HIV1. The data set is classed as functional, organism-based.
Data set [7] relates to Human immunodeficiency virus 2. The data set can be described thus: Antiviral activity against HIV2. Format: functional, organism-based.
Data set [8] deals with Human immunodeficiency virus. The data set can be described thus: Antiviral activity against HIV. The data set is classed as functional, organism-based. The settings on record: Human immunodeficiency virus 1.

Active and inactive are the calls of the source. The rule behind the calls is not given here.

Reverse transcriptase (Human immunodeficiency virus 2), sequence (Q06347 as listed by the source): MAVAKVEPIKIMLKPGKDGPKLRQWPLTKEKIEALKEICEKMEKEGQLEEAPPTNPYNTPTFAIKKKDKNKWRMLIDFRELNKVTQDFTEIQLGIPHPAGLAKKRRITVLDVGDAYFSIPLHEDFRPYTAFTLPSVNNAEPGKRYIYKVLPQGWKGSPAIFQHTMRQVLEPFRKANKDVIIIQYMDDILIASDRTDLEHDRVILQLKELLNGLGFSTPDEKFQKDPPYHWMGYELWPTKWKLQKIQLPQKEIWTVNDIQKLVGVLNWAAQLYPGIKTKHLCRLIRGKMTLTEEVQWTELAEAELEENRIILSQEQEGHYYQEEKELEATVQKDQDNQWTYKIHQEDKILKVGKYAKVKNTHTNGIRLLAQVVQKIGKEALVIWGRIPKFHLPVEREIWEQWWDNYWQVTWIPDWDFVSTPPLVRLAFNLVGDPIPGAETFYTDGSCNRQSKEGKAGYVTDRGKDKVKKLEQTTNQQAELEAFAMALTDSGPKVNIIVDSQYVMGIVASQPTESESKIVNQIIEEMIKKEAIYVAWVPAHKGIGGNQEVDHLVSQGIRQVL

`Cn1c2ccccc2c2cc(C(=O)N3CCN(c4cccc(Cl)c4Cl)CC3)nc(-c3ccccc3)c21`: in the data set on HeLa, half-maximal cytotoxicity (CC50) was put at 63.9 µM. For the same molecule, the EC50 in [1] and in data set [2] was more than 63.9 µM each time. Moreover, the selectivity ratio in [3] is less than 1.

On to `Cn1c2ccccc2c2cc(C(=O)N3CCN(c4ccc([N+](=O)[O-])cc4)CC3)nc(-c3ccccc3)c21`, for which the CC50 in the data set on HeLa is more than 204 µM. Moreover, the EC50 in [1] and in [2] was more than 204 µM in each case.

Consider `O=c1[nH]cnc2c1ncn2[C@H]1CC[C@@H](CO)O1` [DIDANOSINE], for which, in the data set with HeLa, the CC50 is more than 50 µM. Further, the EC50 in data set [1] came out at 2.27 µM; in data set [2], 2.56 µM. In [3], the selectivity ratio is more than 21.7.

For the molecule `Cn1c2ccccc2c2cc(C(=O)N3CCN(c4ccccc4)CC3)nc(-c3ccccc3)c21`, the inhibition result in data set [4] and in data set [5] was “inactive” in each case. The molecule further yielded a CC50 with HeLa of more than 224 µM. Also, the values for the EC50 in [1] and in data set [2] were 29.4 µM and more than 224 µM, respectively. Further, the selectivity ratio in [3] was more than 8.

On to `Cn1c2ccccc2c2cc(C(=O)N3CCN(c4ccc(Cl)cc4)CC3)nc(-c3ccccc3)c21`, for which the CC50 with HeLa is more than 208 µM. The EC50 in data set [1] and in data set [2] was more than 208 µM throughout.

With `Cn1c2ccccc2c2cc(C(=O)N3CCN(c4ccccn4)CC3)nc(-c3ccccc3)c21`, in the data set with HeLa, it took 19.2 µM to reach half-maximal cytotoxicity (CC50). Also, the EC50 in data set [1] and in data set [2] was more than 19.2 µM in each case. Also, the selectivity ratio in data set [3] is less than 1.

The molecule `Nc1ccn([C@@H]2CS[C@H](CO)O2)c(=O)n1` [LAMIVUDINE] returned a CC50 with HeLa of more than 20 µM. Also, the EC50 worked out at 3.56 µM in [1] and 0.89 µM in data set [2]. Further, the selectivity ratio in data set [3] was more than 5.6.

On to `NC(=O)c1cc2c([nH]c3ccccc32)c(-c2ccc(CO)o2)n1`, for which the EC50 in data set [6] was 380 nM; in data set [7] it was 570 nM.

`Cc1cn([C@H]2C[C@H](N=[N+]=[N-])[C@@H](CO)O2)c(=O)[nH]c1=O` [ZIDOVUDINE]: the CC50 in the data set on HeLa is more than 25 µM. For the same molecule, the EC50 stood at 0.0016 µM in data set [1] and 0.0019 µM in [2]. Moreover, in data set [3], the selectivity ratio is more than 12500.

`Cc1ccnc2c1NC(=O)c1cccnc1N2C1CC1` [NEVIRAPINE] yielded a CC50 with HeLa of more than 4 µM. For the same molecule, the results for the EC50 in [1] and in data set [2] were more than 4 µM and 0.027 µM, respectively.

With `Cn1c2ccccc2c2cc(C(=O)N3CCN(c4ccccc4Cl)CC3)nc(-c3ccccc3)c21`, the CC50 in the data set with HeLa came out at 23.6 µM. Moreover, the EC50 in [1] and in [2] was more than 23.6 µM in each case. In data set [3], the selectivity ratio is less than 1.

As for `Cn1c2ccccc2c2cc(C(=O)N3CCN(c4ccccc4F)CC3)nc(-c3ccccc3)c21`, the inhibition entry in [4] and in [5] was “inactive” each time. For the same molecule, the CC50 in the data set on HeLa turned out to be 50.6 µM. Further, the values for the EC50 in data set [1] and in [2] were 5.4 µM and more than 50.6 µM, respectively. Also, the selectivity ratio in data set [3] was 9.

For the molecule `COc1ccccc1N1CCN(C(=O)c2cc3c4ccccc4n(C)c3c(-c3ccccc3)n2)CC1`, the inhibition result in [4] and in data set [5] was “inactive” each time. The CC50 with HeLa is 25.3 µM. The EC50 was 3.2 µM in data set [1] and more than 25.3 µM in [2]. Also, the selectivity ratio in data set [3] came to 8.

In the data set on HeLa, `Cn1c2ccccc2c2cc(C(=O)N3CCN(c4ccncc4)CC3)nc(-c3ccccc3)c21` yielded a CC50 of 4.02 µM. The EC50 in [1] and in data set [2] was more than 4.02 µM in each case. Besides, the selectivity ratio in data set [3] is less than 1.

In the data set with HeLa, `Cc1ccccc1N1CCN(C(=O)c2cc3c4ccccc4n(C)c3c(-c3ccccc3)n2)CC1` displayed a CC50 of 16.9 µM. The EC50 in [1] and in [2] was more than 16.9 µM in each case. The selectivity ratio in data set [3] was less than 1.

As for `COc1cccc(N2CCN(C(=O)c3cc4c5ccccc5n(C)c4c(-c4ccccc4)n3)CC2)c1`, it took 134 µM to reach half-maximal cytotoxicity in the data set on HeLa (CC50). In addition, the EC50 in [1] and in data set [2] was more than 134 µM in each case. The selectivity ratio in data set [3] is less than 1.

In turn, `Cn1c2ccccc2c2cc(C(=O)N3CCN(Cc4ccccc4)CC3)nc(-c3ccccc3)c21` came in with a CC50 in the data set on HeLa of 21.7 µM. In addition, the EC50 in data set [1] and in data set [2] was more than 21.7 µM each time. For the same molecule, in data set [3], the selectivity ratio is less than 1.

For the molecule `COc1ccc(N2CCN(C(=O)c3cc4c5ccccc5n(C)c4c(-c4ccccc4)n3)CC2)cc1`, the CC50 in the data set with HeLa was more than 210 µM. Further, the EC50 in data set [1] and in data set [2] was more than 210 µM throughout.

As for `Cn1c2ccccc2c2cc(C(=O)N3CCN(c4cccc(Cl)c4)CC3)nc(-c3ccccc3)c21`, in the data set on HeLa, the midpoint of cytotoxicity, the CC50, lay at 111 µM. In addition, the EC50 in [1] and in [2] was more than 111 µM in each case. Also, the selectivity ratio in data set [3] is less than 1.

As for `Cn1c2ccccc2c2cc(C(=O)N3CCN(c4ccc(F)cc4)CC3)nc(-c3ccccc3)c21`, the inhibition result in data set [4] and in [5] was “inactive” in each case. Besides, in the data set with HeLa, the CC50 was more than 189 µM. Further, the EC50 in data set [1] was 2.6 µM; in data set [2] it was more than 189 µM. In [3], the selectivity ratio was more than 72.

For `Cc1ccc(N2CCN(C(=O)c3cc4c5ccccc5n(C)c4c(-c4ccccc4)n3)CC2)cc1`, the inhibition entry in data set [4] and in data set [5] was “inactive” each time. In the data set on HeLa, this molecule displayed a CC50 of 29.6 µM. Besides, the EC50 in [1] was 3.3 µM; in data set [2], more than 29.6 µM. Besides, in data set [3], the selectivity ratio was 9.

For `O=C(O)c1cc2c([nH]c3ccccc32)c(-c2ccc(CO)o2)n1` [FLAZINE], the EC50 in data set [8] was found to be 2360 nM.
